Assay results as given in US20230257396A1, “MACROCYCLES AND THEIR USE” (BLOSSOMHILL THERAPEUTICS, INC., priority 2020, published 2023).
Residue numbers refer to the chain shown, from its start.

How the values were obtained:
Test in all cases: KINOMEscan kinase binding assay (Eurofins/DiscoveRx), % Ctrl
[1] = target: T1, kinases (Homo sapiens, UniProt P42684)
T1 construct: purchased Eurofins/DiscoveRx; host or cells: E. coli BL21-derived host (T7 phage display) for most kinases; HEK-293 for the rest
Description: (§1) Kinase binding assays were performed at Eurofins/DiscoveRx using the general KINOMEscan Protocol (Fabian, M. A. et al., “A small molecule-kinase interaction map for clinical kinase inhibitors,” Nat. Biotechnol. 2005, 23(3):329-36). For most assays, kinase-tagged T7 phage strains were prepared in an E. coli host derived from the BL21 strain. E. coli were grown to log-phase and infected with T7 phage and incubated with shaking at 32° C. until lysis. The lysates were centrifuged and filtered to remove cell debris. The remaining kinases were produced in HEK-293 cells and subsequently tagged with DNA for qPCR detection. Streptavidin-coated magnetic beads were treated with biotinylated small molecule ligands for 30 minutes at room temperature to generate affinity resins for kinase assays. The liganded beads were blocked with excess biotin and washed with blocking buffer (SeaBlock (Pierce), 1% BSA, 0.05% Tween 20, 1 mM DTT) to remove unbound ligand and to reduce nonspecific binding. Binding reactions were assembled by combining kinases, liganded affinity beads, and test compounds in 1×binding buffer (20% SeaBlock, 0.17×PBS, 0.05% Tween 20, 6 mM DTT). All reactions were performed in polystyrene 96-well plates in a final volume of 0.135 mL. The assay plates were incubated at room temperature with shaking for 1 hour and the affinity beads were washed with washbuffer (1×PBS, 0.05% Tween 20). The beads were then re-suspended in elution buffer (1× PBS, 0.05% Tween 20, 0.5 μM non-biotinylated affinity ligand) and incubated at room temperature with shaking for 30 minutes. The kinase concentration in the eluates was measured by qPCR. Results for compounds tested in this assay at a given concentration are reported as “% Ctrl”, where lower numbers indicate stronger binding in the matrix.
(§2) (test compound signal-positive control signal)/(negative control signal-positive control signal) X100

[2] = target: T2, kinases (Homo sapiens, UniProt P00533, DEL752-759)
T2 construct: purchased Eurofins/DiscoveRx; host or cells: E. coli BL21-derived host (T7 phage display) for most kinases; HEK-293 for the rest
Description: as §1, §2

[3] = target: T3, kinases (Homo sapiens, UniProt P00533, T790M)
T3 construct: purchased Eurofins/DiscoveRx; host or cells: E. coli BL21-derived host (T7 phage display) for most kinases; HEK-293 for the rest
Description: as §1, §2

[4] = target: T4, kinases (Homo sapiens, UniProt P36888, D835Y)
T4 construct: purchased Eurofins/DiscoveRx; host or cells: E. coli BL21-derived host (T7 phage display) for most kinases; HEK-293 for the rest
T4 sequence (P36888 27-993 D835Y): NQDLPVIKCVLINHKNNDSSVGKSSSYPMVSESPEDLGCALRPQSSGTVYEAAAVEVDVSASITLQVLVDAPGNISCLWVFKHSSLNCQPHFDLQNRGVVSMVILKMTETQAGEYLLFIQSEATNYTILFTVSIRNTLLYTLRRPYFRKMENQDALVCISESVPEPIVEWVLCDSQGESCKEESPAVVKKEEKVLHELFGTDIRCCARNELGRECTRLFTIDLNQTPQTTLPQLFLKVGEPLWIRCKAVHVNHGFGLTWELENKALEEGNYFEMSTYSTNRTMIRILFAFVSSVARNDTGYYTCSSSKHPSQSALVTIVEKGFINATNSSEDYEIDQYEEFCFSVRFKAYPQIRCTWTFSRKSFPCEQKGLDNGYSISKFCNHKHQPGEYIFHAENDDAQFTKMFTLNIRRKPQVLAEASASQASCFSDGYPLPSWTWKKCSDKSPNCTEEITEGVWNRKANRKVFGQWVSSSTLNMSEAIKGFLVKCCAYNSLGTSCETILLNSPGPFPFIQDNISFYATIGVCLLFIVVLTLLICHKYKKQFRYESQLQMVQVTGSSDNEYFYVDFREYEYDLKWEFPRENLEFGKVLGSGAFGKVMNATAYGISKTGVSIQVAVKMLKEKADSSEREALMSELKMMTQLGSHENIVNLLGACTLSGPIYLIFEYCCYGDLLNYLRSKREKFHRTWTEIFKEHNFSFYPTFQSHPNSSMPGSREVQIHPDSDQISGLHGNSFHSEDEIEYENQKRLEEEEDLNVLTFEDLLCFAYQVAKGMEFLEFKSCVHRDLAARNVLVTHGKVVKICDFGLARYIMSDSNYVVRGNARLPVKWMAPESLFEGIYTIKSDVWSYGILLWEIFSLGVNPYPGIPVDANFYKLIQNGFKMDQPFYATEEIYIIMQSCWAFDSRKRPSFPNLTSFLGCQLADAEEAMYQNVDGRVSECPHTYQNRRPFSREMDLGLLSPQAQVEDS
Description: as §1, §2

[5] = target: T5, kinases (Homo sapiens, UniProt P36888, K663Q)
T5 construct: purchased Eurofins/DiscoveRx; host or cells: E. coli BL21-derived host (T7 phage display) for most kinases; HEK-293 for the rest
T5 sequence (P36888 27-993 K663Q): T4 sequence (P36888 27-993 D835Y) with K637Q, Y809D
Description: as §1, §2

[6] = target: T6, kinases (Homo sapiens, UniProt P00533, DEL746-750)
T6 construct: purchased Eurofins/DiscoveRx; host or cells: E. coli BL21-derived host (T7 phage display) for most kinases; HEK-293 for the rest
Description: as §1, §2

T1 sequence (P42684 whole entry): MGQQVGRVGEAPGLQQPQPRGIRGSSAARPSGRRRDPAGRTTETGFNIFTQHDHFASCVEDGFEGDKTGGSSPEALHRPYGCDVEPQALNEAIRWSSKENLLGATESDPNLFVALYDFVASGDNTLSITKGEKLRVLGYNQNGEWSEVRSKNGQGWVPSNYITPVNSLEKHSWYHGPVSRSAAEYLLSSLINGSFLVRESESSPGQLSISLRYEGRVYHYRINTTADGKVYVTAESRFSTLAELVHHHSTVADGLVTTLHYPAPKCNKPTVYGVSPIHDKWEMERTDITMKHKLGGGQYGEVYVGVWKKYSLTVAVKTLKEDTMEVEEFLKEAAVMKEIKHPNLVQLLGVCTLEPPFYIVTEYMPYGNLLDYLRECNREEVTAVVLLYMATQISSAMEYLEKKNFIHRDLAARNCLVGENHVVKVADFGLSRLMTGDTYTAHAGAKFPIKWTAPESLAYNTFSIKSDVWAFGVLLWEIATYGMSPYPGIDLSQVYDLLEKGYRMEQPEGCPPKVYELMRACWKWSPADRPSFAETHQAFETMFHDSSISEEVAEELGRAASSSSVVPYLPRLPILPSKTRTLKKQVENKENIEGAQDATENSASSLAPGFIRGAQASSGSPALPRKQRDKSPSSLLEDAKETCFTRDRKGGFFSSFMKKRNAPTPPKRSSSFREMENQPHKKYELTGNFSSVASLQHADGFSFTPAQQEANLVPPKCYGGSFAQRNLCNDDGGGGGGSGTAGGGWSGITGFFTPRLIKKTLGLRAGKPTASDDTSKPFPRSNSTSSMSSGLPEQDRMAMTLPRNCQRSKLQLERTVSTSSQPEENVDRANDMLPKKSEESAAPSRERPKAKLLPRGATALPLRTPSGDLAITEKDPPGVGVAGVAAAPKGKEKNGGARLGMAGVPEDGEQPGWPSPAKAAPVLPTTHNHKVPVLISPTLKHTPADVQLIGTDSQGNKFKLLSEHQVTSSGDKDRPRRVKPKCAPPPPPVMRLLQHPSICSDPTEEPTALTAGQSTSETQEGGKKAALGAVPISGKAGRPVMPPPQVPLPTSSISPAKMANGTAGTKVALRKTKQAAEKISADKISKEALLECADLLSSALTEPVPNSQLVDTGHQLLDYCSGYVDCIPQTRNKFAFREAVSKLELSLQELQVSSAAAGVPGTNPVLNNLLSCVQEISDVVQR

| Compound | % Ctrl, ABL2 ([1]; 1 μM; ABL2) | % Ctrl, EGFR(S752-I759del) ([2]; 1 μM; EGFR(S752-I759del)) | % Ctrl, EGFR(T790M) ([3]; 1 μM; EGFR(T790M)) | % Ctrl, FLT3(D835Y) ([4]; 1 μM; FLT3(D835Y)) | % Ctrl, FLT3(K663Q) ([5]; 1 μM; FLT3(K663Q)) | % Ctrl, EGFR(E746-A750del) ([6]; 1 μM; EGFR(E746-A750del)) | other results |
| --- | --- | --- | --- | --- | --- | --- | --- |
| Cc1cc2c([nH]1)/C=C1\C(=O)Nc3ccc(cc31)-c1c(noc1C(C)C)COCCN(C)C2=O [Ex. 161, [3a(4)Z]-9-methyl-16-(propan-2-yl)-10,11-dihydro-2H,13H-1,17-(ethanediylidene)[1,2]oxazolo[4,3-m]dipyrrolo[3,2-f:3′,4′-i][1,4]oxazacyclopentadecine-3,8(5H,9H)-dione] | – | – | – | – | – | – | % Ctrl, ABL2 ([1]; 1 μM; target ABL2): 87 % Ctrl; % Ctrl, EGFR(S752-I759del) ([2]; 1 μM; target EGFR(S752-I759del)): 81 % Ctrl; % Ctrl, EGFR(T790M) ([3]; 1 μM; target EGFR(T790M)): 100 % Ctrl; % Ctrl, FLT3(D835Y) ([4]; 1 μM; target FLT3(D835Y)): 36 % Ctrl; % Ctrl, FLT3(K663Q) ([5]; 1 μM; target FLT3(K663Q)): 54 % Ctrl; % Ctrl, EGFR(E746-A750del) ([6]; 1 μM; target EGFR(E746-A750del)): 87 % Ctrl |
| Cc1cc2c([nH]1)/C=C1\C(=O)Nc3ccc(cc31)OCCOCCN(C)C2=O [Ex.91, [16a(17)Z]-2,5-dimethyl-6,7,9,10-tetrahydro-1H-12,14-(ethanediylidene)dipyrrolo[3,2-i:3′,4′-l][1,4,7]dioxazacyclopentadecine-4,16(5H,15H)-dione] | 32 % Ctrl | 63 % Ctrl | 82 % Ctrl | 0.25 % Ctrl | 63 % Ctrl | 93 % Ctrl | – |
| Cc1cc2c([nH]1)/C=C1\C(=O)Nc3ccc(cc31)-c1cnn(C)c1CNCCN(C)C2=O [Ex. 125, [3a(4)Z]-6,9,14-trimethyl-9,10,11,12,13,14-hexahydro-1,17-(ethanediylidene)pyrazolo[4,3-m]dipyrrolo[3,2-f:3′,4′-i][1,4]diazacyclopentadecine-3,8(2H,5H)-dione] | 2.2 % Ctrl | 73 % Ctrl | 11 % Ctrl | 0 % Ctrl | 1.4 % Ctrl | 20 % Ctrl | – |
| Cc1cc2c([nH]1)/C=C1\C(=O)Nc3cc(Cl)c(cc31)OCCOCCN(C)C2=O [Ex. 131, [16a(17)Z]-19-chloro-2,5-dimethyl-6,7,9,10-tetrahydro-1H-12,14-(ethanediylidene)dipyrrolo[3,2-i:3′,4′-l][1,4,7]dioxazacyclopentadecine-4,16(5H,15H)-dione] | 1.8 % Ctrl | 70 % Ctrl | 61 % Ctrl | 2.3 % Ctrl | 7.4 % Ctrl | 11 % Ctrl | – |
| Cc1cc2c([nH]1)/C=C1\C(=O)Nc3cnc(cc31)-c1cn[nH]c1CNCCN(C)C2=O [Ex. 55, [3a(4)Z]-6,9-dimethyl-9,10,11,12,13,14-hexahydro-17,1-(azenometheno)pyrazolo[4,3-m]dipyrrolo[3,2-f:3′,4′-i][1,4]diazacyclopentadecine-3,8(2,5H)-dione] | – | – | – | – | – | – | % Ctrl, ABL2 ([1]; target ABL2; 1 μM): 58 % Ctrl; % Ctrl, EGFR(S752-I759del) ([2]; target EGFR(S752-I759del); 1 μM): 84 % Ctrl; % Ctrl, EGFR(T790M) ([3]; target EGFR(T790M); 1 μM): 70 % Ctrl; % Ctrl, FLT3(D835Y) ([4]; target FLT3(D835Y); 1 μM): 2 % Ctrl; % Ctrl, FLT3(K663Q) ([5]; target FLT3(K663Q); 1 μM): 1.2 % Ctrl; % Ctrl, EGFR(E746-A750del) ([6]; target EGFR(E746-A750del); 1 μM): 74 % Ctrl |
| Cc1cc2c([nH]1)/C=C1\C(=O)Nc3ccc(cc31)-c1cnn(C)c1COCCN(C)C2=O [Ex. 124, [3a(4)Z]-6,9,14-trimethyl-10,11,13,14-tetrahydro-2H-1,17-(ethanediylidene)pyrazolo[4,3-m]dipyrrolo[3,2-f:3′,4′-i][1,4]oxazacyclopentadecine-3,8(5H,9H)-dione] | 2.4 % Ctrl | 68 % Ctrl | 8.5 % Ctrl | 5.6 % Ctrl | 13 % Ctrl | 15 % Ctrl | – |

Continued, in another order:

| % Ctrl, ABL2 ([1]; 1 μM; ABL2) | % Ctrl, EGFR(S752-I759del) ([2]; 1 μM; EGFR(S752-I759del)) | % Ctrl, EGFR(T790M) ([3]; 1 μM; EGFR(T790M)) | % Ctrl, FLT3(D835Y) ([4]; 1 μM; FLT3(D835Y)) | % Ctrl, FLT3(K663Q) ([5]; 1 μM; FLT3(K663Q)) | % Ctrl, EGFR(E746-A750del) ([6]; 1 μM; EGFR(E746-A750del)) | Compound | other results |
| --- | --- | --- | --- | --- | --- | --- | --- |
| 85 % Ctrl | 92 % Ctrl | 94 % Ctrl | 13 % Ctrl | 66 % Ctrl | 99 % Ctrl | CNC(=O)[C@H]1CN(C)C(=O)c2cc(C)[nH]c2/C=C2\C(=O)Nc3cc(Cl)c(cc32)OCCO1 [Ex. 135, [7R,16a(17)Z]-19-chloro-N,2,5-trimethyl-4,16-dioxo-4,5,6,7,9,10,15,16-octahydro-1H-12,14-(ethanediylidene)dipyrrolo[3,2-i:3′,4′-l][1,4,7]dioxazacyclopentadecine-7-carboxamide] | – |
| 77 % Ctrl | 95 % Ctrl | 96 % Ctrl | 2.6 % Ctrl | 64 % Ctrl | 76 % Ctrl | Cc1cc2c([nH]1)/C=C1\C(=O)Nc3cc(Cl)c(cc31)OCCO[C@@H](C(=O)N[C@@H]1CCNC1)CN(C)C2=O [Ex. 136, [7R,16a(17)Z]-19-chloro-2,5-dimethyl-4,16-dioxo-N-[(3R)-pyrrolidin-3-yl]-4,5,6,7,9,10,15,16-octahydro-1H-12,14-(ethanediylidene)dipyrrolo[3,2-i:3′,4′-l][1,4,7]dioxazacyclopentadecine-7-carboxamide] | – |
